In US20220088121A1, “COMPOSITIONS CONTAINING A PEPTIDE ABLE TO STIMULATE THE GPRC6A-DEPENDENT SIGNALING PATHWAY” (Altergon S.A., priority 2019, published 2022) one finds insulin release and testosterone release data, which are given here for one sequence.

Experiment [1] deals with INS-1 rat insulinoma cells. Description: Insulin release from INS-1 insulinoma cell cultures. The class given is cell-based. The settings on record: experimental models of cell line cultures.
Experimental: INS-1 rat insulinoma cells, cultured to 90% confluence in 24-well multiwell plates, were stimulated with different combinations of secretagogue agonists for 2 hours at 37° C. under sterile conditions, according to an already validated protocol [Hohmeier Diabetes. […] Stimulation with the phosphodiesterase inhibitor IBMX (Gluc 1 mM+IBMX) represents the maximum secretagogue stimulation and positive control of the experiment. […] Significance: *, ** and ***=P<0.05, 0.01 and 0.001 respectively vs the baseline control.
Experiment [2] deals with MA-10 mouse Leydig cell tumour cell lines. The experiment is described as follows: Testosterone release from MA-10 mouse Leydig-cell tumour cell cultures. The class given is cell-based. The settings on record: experimental models of cell line cultures; Example 1: peptide 10^−6M, 12 hours at 37° C. (FIG. 1).
Experimental: MA-10 mouse Leydig-cell tumour cells, cultured to 90% confluence in 24-well multiwell plates, were stimulated with different agonists for 12 hours at 37° C. under sterile conditions, according to an already validated protocol [Cormier Cell Biol Toxicol. […] The control (CTRL) contained no agonists. The results relate to testosterone release, expressed as ng of testosterone (T) per μg of total protein, obtained from cell extract. […] Significance: *=P<0.05 vs. CTRL.
MA-10 mouse Leydig-cell tumour cells, cultured to 90% confluence in 24-well multiwell plates, were stimulated with different agonists for 12 hours at 37° C. under sterile conditions, according to an already validated protocol [Cormier Cell Biol Toxicol. […] Significance: *, ** and ***=P<0.05, 0.01 and 0.001 respectively vs the baseline control.

For the sequence NMYLPPVPPPPVVPTF [SEQ ID 1], the insulin release result in experiment [1] is “stimulates”. The testosterone release result in experiment [2] is “stimulates”.
